Test results from ChEMBL document CHEMBL1135903 (J Med Chem, 2002).
In brackets after ≈: the same amount, converted by molar mass. Several values for one entry are separate records, joined by “and”; a condition that tells them apart may be missing. Equal values may be shown once.

Columns and labels:
[1] = Solubility in Chloroform buffer at pH 7.4; type: physicochemical
[2] = molecular target: T1, Carbonic anhydrase 4 (Bos taurus, UniProt Q95323)
T1 sequence (Q95323 whole entry): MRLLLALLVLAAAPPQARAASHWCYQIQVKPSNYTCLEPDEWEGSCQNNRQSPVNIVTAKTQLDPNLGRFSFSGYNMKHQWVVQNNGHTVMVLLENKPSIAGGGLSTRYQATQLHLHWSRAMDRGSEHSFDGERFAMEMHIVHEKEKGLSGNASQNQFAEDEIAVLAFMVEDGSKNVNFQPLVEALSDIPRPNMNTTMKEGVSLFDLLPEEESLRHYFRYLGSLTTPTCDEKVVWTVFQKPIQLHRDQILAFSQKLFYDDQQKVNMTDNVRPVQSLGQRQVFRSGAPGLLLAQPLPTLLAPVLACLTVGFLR
Description: Inhibitory activity against bovine carbonic anhydrase IV

[3] = not given; remark: listed apart in the source
[4] = octanol/water
[5] = molecular target: Carbonic anhydrase 1 (Homo sapiens, UniProt P00915)
Carbonic anhydrase 1, sequence (P00915 whole entry): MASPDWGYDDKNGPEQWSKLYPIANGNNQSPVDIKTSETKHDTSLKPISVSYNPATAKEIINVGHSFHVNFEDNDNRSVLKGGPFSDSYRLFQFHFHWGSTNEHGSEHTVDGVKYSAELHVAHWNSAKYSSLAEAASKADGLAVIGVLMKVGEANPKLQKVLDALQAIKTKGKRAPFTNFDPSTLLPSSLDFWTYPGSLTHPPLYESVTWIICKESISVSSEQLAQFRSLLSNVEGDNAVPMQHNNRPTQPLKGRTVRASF
Description: Inhibitory activity against Human carbonic anhydrase I

| SMILES | Ki [2] | Ki [5] | also measured |
| --- | --- | --- | --- |
| NS(=O)(=O)c1ccc(NC(=O)CN(CCN(CCN(CC(=O)O)CC(=O)O)CC(=O)O)CC(=O)O)cc1 | 180 nM |  | solubility [1]: 48 mM (≈ 26.3 mg/mL); Kin x10e3: 6.9 hr-1; Kin x10e3 [3]: 3.8 hr-1; logD [4]: 0.983 |
| NS(=O)(=O)c1ccc(NC(=O)CN(CCN(CCN(CC(=O)O)CC(=O)Nc2ccc(S(N)(=O)=O)cc2)CC(=O)O)CC(=O)O)cc1 | 156 nM |  | solubility [1]: 35 mM (≈ 24.6 mg/mL); Kin x10e3: 4.5 hr-1; Kin x10e3 [3]: 3.6 hr-1; logD [4]: 1.456 |
| NS(=O)(=O)c1nnc(NC(=O)CCNC(=O)CN(CC(=O)O)CC(=O)O)s1 | 45 nM | 268 nM |  |
| NS(=O)(=O)c1nc2ccc(OC(=O)CNCC(=O)O)cc2s1 | 14 nM | 50 nM |  |
| NS(=O)(=O)c1ccc(NC(=O)CN(CCN(CC(=O)O)CC(=O)O)CC(=O)O)c(I)c1 | 78 nM | 123 nM |  |
| Cn1nc(S(N)(=O)=O)s/c1=N/C(=O)CNCCNCC(=O)O | 76 nM | 275 nM |  |
| NS(=O)(=O)c1ccc(NC(=O)CN(CCN(CC(=O)O)c2ccccc2O)c2ccccc2O)c(Br)c1 | 56 nM | 175 nM |  |
| NS(=O)(=O)c1ccc(NC(=O)CN(CCN(CC(=O)O)c2ccccc2O)c2ccccc2O)c(Cl)c1 | 108 nM | 870 nM |  |
| Cn1nc(S(N)(=O)=O)s/c1=N/C(=O)CN(CC(=O)O)CC(=O)O | 106 nM | 520 nM |  |
| NS(=O)(=O)c1ccc(CCNC(=O)CN(CCOCCOCCN(CC(=O)O)CC(=O)O)CC(=O)O)cc1 | 32 nM | 290 nM |  |
| NS(=O)(=O)c1ccc(CNC(=O)CN(CCOCCOCCN(CC(=O)O)CC(=O)NCc2ccc(S(N)(=O)=O)cc2)CC(=O)O)cc1 [listing 1 of 2 here] | 39 nM | 350 nM |  |
| NS(=O)(=O)c1nnc(NC(=O)CN(CCN(CC(=O)O)c2ccccc2O)c2ccccc2O)s1 | 105 nM | 245 nM |  |
| NS(=O)(=O)c1cc(S(N)(=O)=O)c(NC(=O)CN(CCN(CC(=O)O)c2ccccc2O)c2ccccc2O)c(Cl)c1Cl | 105 nM | 250 nM |  |
| NS(=O)(=O)c1nnc(NC(=O)CCNC(=O)CN(CCN(CC(=O)O)CC(=O)O)CC(=O)O)s1 | 23 nM | 200 nM |  |
| NS(=O)(=O)c1ccc(NC(=O)CN(CCOCCOCCN(CC(=O)O)CC(=O)Nc2ccc(S(N)(=O)=O)cc2Cl)CC(=O)O)c(Cl)c1 | 22 nM | 150 nM |  |
| NS(=O)(=O)c1ccc(NC(=O)CN(CC(=O)O)CC(=O)O)c(Br)c1 | 53 nM | 620 nM |  |
| NS(=O)(=O)c1ccc(CNC(=O)CN(CC(=O)O)CC(=O)O)cc1 | 256 nM | 3500 nM |  |
| NS(=O)(=O)c1nc2ccc(OCCOC(=O)CNCC(=O)O)cc2s1 | 12 nM | 46 nM |  |
| NS(=O)(=O)c1ccc(NNC(=O)CNCC(=O)O)cc1 | 980 nM | 32700 nM |  |
| NS(=O)(=O)c1cc(S(N)(=O)=O)c(NC(=O)CNCC(=O)O)cc1Cl | 145 nM | 400 nM |  |
| NS(=O)(=O)c1ccc(NNC(=O)CN(CCN(CC(=O)O)c2ccccc2O)c2ccccc2O)cc1 | 840 nM | 21000 nM |  |

| SMILES | Ki [2] | Ki [5] | also measured |
| --- | --- | --- | --- |
| NS(=O)(=O)c1ccc(COC(=O)CN(CCN(CC(=O)O)CC(=O)OCc2ccc(S(N)(=O)=O)cc2)CC(=O)O)cc1 | 200 nM | 460 nM |  |
| NS(=O)(=O)c1nc2ccc(OCCOC(=O)CN(CCN(CC(=O)O)CC(=O)OCCOc3ccc4nc(S(N)(=O)=O)sc4c3)CC(=O)O)cc2s1 | 6 nM | 25 nM |  |
| NS(=O)(=O)c1ccccc1NC(=O)CN(CCOCCOCCN(CC(=O)O)CC(=O)Nc1ccccc1S(N)(=O)=O)CC(=O)O | 320 nM | 5600 nM |  |
| NS(=O)(=O)c1ccc(NC(=O)CN(CCN(CC(=O)O)CC(=O)O)CC(=O)O)cc1 | 330 nM | 6300 nM |  |
| NS(=O)(=O)c1nc2ccc(OC(=O)CN(CCOCCOCCN(CC(=O)O)CC(=O)Oc3ccc4nc(S(N)(=O)=O)sc4c3)CC(=O)O)cc2s1 | 5 nM | 21 nM |  |
| NS(=O)(=O)c1ccc(NC(=O)CN(CCN(CC(=O)O)c2ccccc2O)c2ccccc2O)c(F)c1 | 79 nM | 450 nM |  |
| NS(=O)(=O)c1nc2ccc(NC(=O)CN(CCN(CC(=O)O)c3ccccc3O)c3ccccc3O)cc2s1 | 13 nM | 52 nM |  |
| NS(=O)(=O)c1ccc(NC(=O)CN(CCN(CC(=O)O)CC(=O)Nc2ccc(S(N)(=O)=O)cc2F)CC(=O)O)c(F)c1 | 35 nM | 240 nM |  |
| NS(=O)(=O)c1ccc(CCOC(=O)CN(CCN(CC(=O)O)CC(=O)OCCc2ccc(S(N)(=O)=O)cc2)CC(=O)O)cc1 | 165 nM | 450 nM |  |
| Cn1nc(S(N)(=O)=O)s/c1=N/C(=O)CNCC(=O)O | 120 nM | 710 nM |  |
| Cn1nc(S(N)(=O)=O)s/c1=N/C(=O)CN(CCOCCOCCN(CC(=O)O)CC(=O)/N=c1/sc(S(N)(=O)=O)nn1C)CC(=O)O | 5 nM | 36 nM |  |
| Cn1nc(S(N)(=O)=O)s/c1=N/C(=O)CN(CCN(CCN(CC(=O)O)CC(=O)/N=c1/sc(S(N)(=O)=O)nn1C)CC(=O)O)CC(=O)O | 9 nM | 54 nM |  |
| NS(=O)(=O)c1ccc(NC(=O)CN(CCOCCOCCN(CC(=O)O)CC(=O)O)CC(=O)O)c(F)c1 | 31 nM | 210 nM |  |
| NS(=O)(=O)c1cccc(NC(=O)CN(CCN(CC(=O)O)c2ccccc2O)c2ccccc2O)c1 | 860 nM | 10000 nM |  |
| NS(=O)(=O)c1ccc(NC(=O)CN(CC(=O)O)CC(=O)O)cc1 | 450 nM | 20600 nM |  |
| NS(=O)(=O)c1ccc(NNC(=O)CN(CCN(CC(=O)O)CC(=O)NNc2ccc(S(N)(=O)=O)cc2)CC(=O)O)cc1 | 510 nM | 12500 nM |  |
| Cn1nc(S(N)(=O)=O)s/c1=N/C(=O)CN(CCN(CC(=O)O)c1ccccc1O)c1ccccc1O | 57 nM | 250 nM |  |
| NS(=O)(=O)c1nc2ccc(OC(=O)CN(CCN(CCN(CC(=O)O)CC(=O)Oc3ccc4nc(S(N)(=O)=O)sc4c3)CC(=O)O)CC(=O)O)cc2s1 | 4 nM and 5 nM | 16 nM |  |
| NS(=O)(=O)c1ccc(NC(=O)CN(CCN(CC(=O)O)CC(=O)O)CC(=O)O)c(F)c1 | 40 nM | 360 nM |  |
| NS(=O)(=O)c1ccc(CCNC(=O)CN(CCOCCOCCN(CC(=O)O)CC(=O)NCCc2ccc(S(N)(=O)=O)cc2)CC(=O)O)cc1 | 20 nM | 160 nM |  |
| NS(=O)(=O)c1ccc(CCOC(=O)CN(CCN(CC(=O)O)c2ccccc2O)c2ccccc2O)cc1 | 300 nM | 760 nM |  |

| SMILES | Ki [2] | Ki [5] | also measured |
| --- | --- | --- | --- |
| NS(=O)(=O)c1ccc(NNC(=O)CN(CCN(CC(=O)O)CC(=O)O)CC(=O)O)cc1 | 750 nM | 16000 nM |  |
| NS(=O)(=O)c1ccc(CCNC(=O)CN(CC(=O)O)CC(=O)O)cc1 | 240 nM | 3300 nM |  |
| NS(=O)(=O)c1cc(S(N)(=O)=O)c(NC(=O)CN(CCN(CC(=O)O)CC(=O)O)CC(=O)O)cc1Cl | 105 nM | 210 nM |  |
| NS(=O)(=O)c1nc2ccc(NC(=O)CN(CCN(CC(=O)O)CC(=O)O)CC(=O)O)cc2s1 | 11 nM | 48 nM |  |
| NS(=O)(=O)c1ccc(CNC(=O)CNCCNCC(=O)O)cc1 | 245 nM | 1760 nM |  |
| NS(=O)(=O)c1nc2ccc(NC(=O)CN(CCOCCOCCN(CC(=O)O)CC(=O)O)CC(=O)O)cc2s1 | 7 nM | 39 nM |  |
| NS(=O)(=O)c1cc(S(N)(=O)=O)c(NC(=O)CN(CCOCCOCCN(CC(=O)O)CC(=O)Nc2cc(Cl)c(S(N)(=O)=O)cc2S(N)(=O)=O)CC(=O)O)cc1Cl | 36 nM | 50 nM |  |
| NS(=O)(=O)c1ccc(COC(=O)CN(CCOCCOCCN(CC(=O)O)CC(=O)O)CC(=O)O)cc1 | 250 nM | 500 nM |  |
| NS(=O)(=O)c1cc(S(N)(=O)=O)c(NC(=O)CNCC(=O)O)c(Cl)c1Cl | 107 nM | 405 nM |  |
| NS(=O)(=O)c1cc(S(N)(=O)=O)c(NC(=O)CN(CC(=O)O)CC(=O)O)cc1Cl | 148 nM | 300 nM |  |
| NS(=O)(=O)c1ccc(COC(=O)CN(CCN(CC(=O)O)c2ccccc2O)c2ccccc2O)cc1 | 320 nM | 945 nM |  |
| NS(=O)(=O)c1ccc(CNC(=O)CN(CCOCCOCCN(CC(=O)O)CC(=O)NCc2ccc(S(N)(=O)=O)cc2)CC(=O)O)cc1 [listing 2 of 2 here] | 16 nM | 35 nM |  |
| NS(=O)(=O)c1ccc(COC(=O)CN(CC(=O)O)CC(=O)O)cc1 | 350 nM | 1200 nM |  |
| NS(=O)(=O)c1cccc(NC(=O)CN(CCN(CC(=O)O)CC(=O)O)CC(=O)O)c1 | 750 nM | 10000 nM |  |
| NS(=O)(=O)c1ccc(CCOC(=O)CN(CC(=O)O)CC(=O)O)cc1 | 320 nM | 1100 nM |  |
| NS(=O)(=O)c1ccc(CCOC(=O)CN(CCN(CC(=O)O)CC(=O)O)CC(=O)O)cc1 | 310 nM | 640 nM |  |
| NS(=O)(=O)c1ccc(NC(=O)CN(CCN(CC(=O)O)CC(=O)Nc2ccc(S(N)(=O)=O)cc2Br)CC(=O)O)c(Br)c1 | 34 nM | 105 nM |  |
| NS(=O)(=O)c1ccc(CCOC(=O)CNCC(=O)O)cc1 | 340 nM | 1200 nM |  |
| NS(=O)(=O)c1ccc(NC(=O)CN(CCOCCOCCN(CC(=O)O)CC(=O)Nc2ccc(S(N)(=O)=O)cc2I)CC(=O)O)c(I)c1 | 20 nM | 76 nM |  |
| NS(=O)(=O)c1cc(S(N)(=O)=O)c(NC(=O)CN(CCN(CC(=O)O)CC(=O)Nc2cc(Cl)c(S(N)(=O)=O)cc2S(N)(=O)=O)CC(=O)O)cc1Cl | 69 nM | 72 nM |  |
| NS(=O)(=O)c1nc2ccc(NC(=O)CN(CCOCCOCCN(CC(=O)O)CC(=O)Nc3ccc4nc(S(N)(=O)=O)sc4c3)CC(=O)O)cc2s1 | 4 nM | 23 nM |  |
